According to patent publication EP4744680A1, “TARGETED CHEMICAL DRUG AND PREPARATION METHOD THEREFOR, PHARMACEUTICAL COMPOSITION, AND USE OF TARGETED CHEMICAL DRUG” (Bai Yao Zhi Da (Beijing) Nanobio Technology Co., Ltd., priority 2023, dated 2025):

How the values were obtained:
A549 lung carcinoma [1] = assay: In-vivo efficacy study in the A549 mouse lung carcinoma model (drug of Example 3); set-up: species or system mouse (BALB/c-nu)
Protocol: • Species/strain: BALB/c nude (BALB/c-nu) • Age: 6-7 weeks • Sex: Male • Body weight: 16-18 g
The day of implantation was designated as Day 0 (D0).When the tumor volume reached approximately 100.0 mm^3 (D5), animals with poor tumor take were excluded, the remaining animals were randomized by tumor volume, and dosing commenced on the day of randomization. 2).Dosing regimen: Table 31
(§1) Tumor size is measured twice per week using a vernier caliper. The long diameter (a) and short diameter (b) are recorded. Tumor volume is calculated as: V=0.5×a×b^2.
RTV = Vt /V0 , [formula] where V0 is the tumor volume at grouping/first dosing (D0), and Vt is the tumor volume at each measurement time point.

N87 gastric cancer = assay: In vivo antitumor efficacy in an N87 gastric cancer mouse model (drug of Example 1); set-up: species or system mouse (BALB/c nude); details: 0.06mg i.v. (tail vein) twice per week for 5 weeks
Protocol: (1)..Cell culture: Tumor cells were cultured in RPMI-1640 medium supplemented with heat-inactivated 10% fetal bovine serum, 100 U/mL penicillin, 100 µg/mL streptomycin, and 2 mM L-glutamine, in a humidified incubator at 37 °C with 5% CO2.Subculture was performed every 3-4 days after confluence; tumor cells in logarithmic growth phase were used for in vivo inoculation. (2).Tumor cell inoculation and grouping: Tumor cells (1 × 10^7) resuspended in PBS: Matrigel were inoculated subcutaneously into the right flank of each mouse.When tumors reached approximately 80-100 mm^3, animals were randomized into groups for dosing. […] (3).Dosing Regimen: Table 22
The dosing volume is 200 µL per 20 g mouse, with the administered dose calculated on a body-weight basis; the observation period is 60 days, adjustable according to the condition of the animals and tumor status.
• a. Tumor volume: Measured twice weekly using vernier calipers. The long and short diameters were recorded; tumor volume was calculated as: Volume = 0.5 × length × (width)^2. • b. Post-administration reactions in animals: At each tumor-measurement time point, body weight was recorded.Changes in body weight relative to dosing time were documented.Survival and general health (e.g., activity, feeding) were monitored throughout the dosing period. • c. Tumor excision, weighing, and photography: at the end of the study, mice were euthanized; tumors were excised, photographed and collected; specimens were fixed or snap-frozen as required. • a) Photograph each animal post-euthanasia with tumor in situ; • b) Dissect and weigh each subcutaneous tumor; • c) Arrange all tumors on a white board according to group codes and photograph; then bisect longitudinally, realign by group code, and photograph again. • d) Tumors were snap-frozen or formalin-fixed per requirements. • d.
• a. […] Inhibition Rate of Tumor Weight (IRTW, %) IRTW (%) = (Wcontrol group−Wtreatment group)/Wcontrol group × 100, [formula] where W is tumor weight.IRTW > 60% is considered effective.

U251-RFP human glioma = assay: In-vivo efficacy study in the U251-RFP human glioma orthotopic mouse model (drug of Example 9); set-up: species or system mouse (BALB/c nude); details: 6mg/Kg i.v. (tail vein) twice weekly, 8 administrations
Source text: 2.Dosing regimen: Table 41

A549 lung carcinoma [2] = assay: In-vivo efficacy study in the A549 mouse lung carcinoma model (drugs of Example 6 and Example 20); set-up: species or system mouse (BALB/cAnSlacNifdc-nu); details: for Tumor growth inhibition rate (TGI, %) at different days post-inoculation: 0.12mg/20g i.v. (tail vein) once weekly, 3 administrations
Source text: • Species/strain: BALB/cAnSlacNifdc-nu • Sex: Male • Body weight: 17-21 g
1).Inoculation and grouping: For the A549 mouse lung carcinoma model, male BALB/cAnSlacNifdc-nu mice weighing 17.0-21.0 g were used. Under aseptic conditions, A549 tumor tissue was excised and cut into 2.0 mm × 2.0 mm × 2.0 mm tumor blocks, which were implanted subcutaneously into the left axillary dorsal region of nude mice. The day of implantation was designated as Day 0 (D0).When the tumor volume reached approximately 150.0 mm^3 (D7), animals were randomized by tumor volume into four groups: A (vehicle control), B, C, and D (drug), with 8 animals per group. On the day of randomization, all groups began intravenous (tail-vein) dosing. Groups A, B, C, and subgroup D1 were dosed once weekly for a total of 3 administrations; subgroup D2 was dosed twice weekly for a total of 6 administrations. 2).Dosing regimen: Table 34
as §1
RTV = Vt /V0 , [formula] where V0 is the tumor volume at grouping/first dosing (D0) and Vt is the tumor volume at each measurement time point.

[3] = Body weight and general condition in the U251 study; assay type: in vivo, mouse (BALB/c nude); details: Group 3, around D10 post-dosing; 6mg/Kg i.v. twice weekly; possibly due to drug toxicity
Protocol: The relationship between body weight change and the dosing regimen is recorded.Survival and health status are also monitored, including activity levels and food intake during the dosing period. • c) Tumor and Organ Imaging: At the end of the dosing period, mice are euthanized, and their brain, heart, liver, spleen, lungs, and kidneys are excised.

[4] = Body weight in the N87 study of the Example 1 drug; assay type: in vivo, mouse (BALB/c nude); details: 0.06mg i.v. (tail vein) twice per week for 5 weeks
[5] = end of the study (D32 or D25), targeted drug: high- and medium-dose
[6] = end of the study (D29), intravenous administration

## COc1cccc2c1C(=O)c1c(O)c3c(c(O)c1C2=O)C[C@@](O)(C(=O)CO)C[C@@H]3O[C@H]1C[C@H](N)[C@@H](O)[C@H](C)O1 [Epirubicin drug substance (API), Epirubicin]
A549 lung carcinoma [1]; Day 8, 0.08mg i.v. (tail vein) twice weekly for 5 weeks
  Tumor growth inhibition rate (TGI, %) at different days post-inoculation: 19.90%
A549 lung carcinoma [1]; Day 8, 0.12mg i.v. (tail vein) twice weekly for 5 weeks
  Tumor growth inhibition rate (TGI, %) at different days post-inoculation: 17.42%
A549 lung carcinoma [1]; Day 8, 0.14mg i.v. (tail vein) twice weekly for 5 weeks
  Tumor growth inhibition rate (TGI, %) at different days post-inoculation: 17.47%
A549 lung carcinoma [1]; Day 11, 0.08mg i.v. (tail vein) twice weekly for 5 weeks
  Tumor growth inhibition rate (TGI, %) at different days post-inoculation: 17.02%
A549 lung carcinoma [1]; Day 11, 0.12mg i.v. (tail vein) twice weekly for 5 weeks
  Tumor growth inhibition rate (TGI, %) at different days post-inoculation: 15.55%
A549 lung carcinoma [1]; Day 11, 0.14mg i.v. (tail vein) twice weekly for 5 weeks
  Tumor growth inhibition rate (TGI, %) at different days post-inoculation: 28.43%
A549 lung carcinoma [1]; Day 14, 0.08mg i.v. (tail vein) twice weekly for 5 weeks
  Tumor growth inhibition rate (TGI, %) at different days post-inoculation: -12.27%
A549 lung carcinoma [1]; Day 14, 0.12mg i.v. (tail vein) twice weekly for 5 weeks
  Tumor growth inhibition rate (TGI, %) at different days post-inoculation: -4.64%
A549 lung carcinoma [1]; Day 14, 0.14mg i.v. (tail vein) twice weekly for 5 weeks
  Tumor growth inhibition rate (TGI, %) at different days post-inoculation: 6.41%
A549 lung carcinoma [1]; Day 17, 0.08mg i.v. (tail vein) twice weekly for 5 weeks
  Tumor growth inhibition rate (TGI, %) at different days post-inoculation: 10.74%
A549 lung carcinoma [1]; Day 17, 0.12mg i.v. (tail vein) twice weekly for 5 weeks
  Tumor growth inhibition rate (TGI, %) at different days post-inoculation: 28.37%
A549 lung carcinoma [1]; Day 17, 0.14mg i.v. (tail vein) twice weekly for 5 weeks
  Tumor growth inhibition rate (TGI, %) at different days post-inoculation: 31.81%
A549 lung carcinoma [1]; Day 22, 0.08mg i.v. (tail vein) twice weekly for 5 weeks
  Tumor growth inhibition rate (TGI, %) at different days post-inoculation: 10.11%
A549 lung carcinoma [1]; Day 22, 0.12mg i.v. (tail vein) twice weekly for 5 weeks
  Tumor growth inhibition rate (TGI, %) at different days post-inoculation: 8.93%
A549 lung carcinoma [1]; Day 22, 0.14mg i.v. (tail vein) twice weekly for 5 weeks
  Tumor growth inhibition rate (TGI, %) at different days post-inoculation: 12.37%
A549 lung carcinoma [1]; Day 25, 0.12mg i.v. (tail vein) twice weekly for 5 weeks
  Tumor growth inhibition rate (TGI, %) at different days post-inoculation: 41.13%
A549 lung carcinoma [1]; Day 25, 0.14mg i.v. (tail vein) twice weekly for 5 weeks
  Tumor growth inhibition rate (TGI, %) at different days post-inoculation: 44.37%
A549 lung carcinoma [1]; Day 29, 0.08mg i.v. (tail vein) twice weekly for 5 weeks
  Tumor growth inhibition rate (TGI, %) at different days post-inoculation: 2.07%
A549 lung carcinoma [1]; Day 29, 0.12mg i.v. (tail vein) twice weekly for 5 weeks
  Tumor growth inhibition rate (TGI, %) at different days post-inoculation: 34.27%
A549 lung carcinoma [1]; Day 29, 0.14mg i.v. (tail vein) twice weekly for 5 weeks
  Tumor growth inhibition rate (TGI, %) at different days post-inoculation: 31.80%
A549 lung carcinoma [1]; Day 32, 0.08mg i.v. (tail vein) twice weekly for 5 weeks
  Tumor growth inhibition rate (TGI, %) at different days post-inoculation: 13.19%
A549 lung carcinoma [1]; Day 32, 0.12mg i.v. (tail vein) twice weekly for 5 weeks
  Tumor growth inhibition rate (TGI, %) at different days post-inoculation: 33.27%
A549 lung carcinoma [1]; Day 32, 0.14mg i.v. (tail vein) twice weekly for 5 weeks
  Tumor growth inhibition rate (TGI, %) at different days post-inoculation: 24.63%
A549 lung carcinoma [1]; [5]
  T/C: greater than 40%
  tumor growth inhibition rate (calculated on the basis of tumor weight and tumor volume): less than 60%
N87 gastric cancer; Day 9
  Tumor Growth Inhibition Rate at Different Days Post-Inoculation (%): 8.44%
N87 gastric cancer; Day 13
  Tumor Growth Inhibition Rate at Different Days Post-Inoculation (%): 0.40%
N87 gastric cancer; Day 17
  Tumor Growth Inhibition Rate at Different Days Post-Inoculation (%): 6.68%
N87 gastric cancer; Day 20
  Tumor Growth Inhibition Rate at Different Days Post-Inoculation (%): 7.83%
N87 gastric cancer; Day 23
  Tumor Growth Inhibition Rate at Different Days Post-Inoculation (%): 12.46%
N87 gastric cancer; Day 27
  Tumor Growth Inhibition Rate at Different Days Post-Inoculation (%): 23.34%
N87 gastric cancer; Day 30
  Tumor Growth Inhibition Rate at Different Days Post-Inoculation (%): 25.87%
N87 gastric cancer; Day 34
  Tumor Growth Inhibition Rate at Different Days Post-Inoculation (%): 31.16%
N87 gastric cancer; Day 37
  Tumor Growth Inhibition Rate at Different Days Post-Inoculation (%): 36.26%
U251-RFP human glioma; Day 6
  Tumor growth inhibition rate (TGI, %) at different days post-inoculation: 35.8%
U251-RFP human glioma; Day 10
  Tumor growth inhibition rate (TGI, %) at different days post-inoculation: -3.9%
U251-RFP human glioma; Day 13
  Tumor growth inhibition rate (TGI, %) at different days post-inoculation: -7.1%
U251-RFP human glioma; Day 17
  Tumor growth inhibition rate (TGI, %) at different days post-inoculation: 19.4%
A549 lung carcinoma [2]; Day 11
  Tumor growth inhibition rate (TGI, %) at different days post-inoculation: 27.01%
A549 lung carcinoma [2]; Day 14
  Tumor growth inhibition rate (TGI, %) at different days post-inoculation: 45.82%
A549 lung carcinoma [2]; Day 18
  Tumor growth inhibition rate (TGI, %) at different days post-inoculation: 43.61%
A549 lung carcinoma [2]; Day 21
  Tumor growth inhibition rate (TGI, %) at different days post-inoculation: 44.97%
A549 lung carcinoma [2]; Day 25
  Tumor growth inhibition rate (TGI, %) at different days post-inoculation: 46.31%
A549 lung carcinoma [2]; Day 29
  Tumor growth inhibition rate (TGI, %) at different days post-inoculation: 49.64%
A549 lung carcinoma [2]; [6]
  T/C: greater than 40%
  tumor growth inhibition rate (calculated based on tumor volume): less than 60%
[3]
  body weight of the mice (and spontaneous activity): started to decrease
[4]
  Body-weight difference between Day 37 and Day 6: 0.91 g
